Results reported in patent US20080317769A1, “Vaccine Composition Comprising Alpha-Galactosylceramide as an Adjuvant For Intranasal Administration” (priority 2005, published 2008).
“Also recorded” adds a separate entry of the source.

How the values were obtained:
[1] = tested on: IFN-γ-producing CD8+ T cells; assay: IFN-γ-producing CD8+ T cells after β-galactosidase stimulation of spleen cells (Ad-LacZ immunization); type: in vivo; details: Balb/c mice; Ad-LacZ + 0.125 μg αGalCer intranasal; spleen cells stimulated with 2.5 μg/mL β-galactosidase for 5 days
Experimental: (§1) Balb/c mice were immunized with 10^6 pfu of replication-deficient live adenovirus harboring beta-galactosidase gene (Ad-LacZ) (Viromed, Korea) alone or together with 0.125 μg of αGalCer by the intranasal administration, two times at two-week intervals. One week after the final immunization, the nasal wash, the lung wash and serum were separated, by the same manner as described in Example 1, to measure β-galactosidase-specific antibody response. In addition, to measure CTL activity, spleen cells were stimulated by 2.5 μg/mL of β-galactosidase for 5 days and IFN-γ-producing CD8+ T cells were examined by intracellular cytokine staining according to the procedure as described in Example <4-2>.

IFN-γ and IL-4 secretion = IFN-γ and IL-4 secretion of spleen and CLN cells cultured with OVA (sandwich ELISA), C57BL/6 mice; type: in vivo; details: cells cultured with 500 μg/ml OVA for 4 days, one week after final immunization
Experimental: (§2) It was directly investigated whether α-GalCer nasal vaccine adjuvant skews immune response into Th1 or Th2 immune response. To measure the secretions of cytokines, cells were obtained from spleen and cervical lymph node (CLN) a week after the final immunization. The cells ([…]) were cultured with 500 μg/ml of OVA for 4 days. The secretions of IFN-γ and IL-4 in the culture supernatant were measured by using the mouse IFN-γ and IL-4 OptELA set ELISA kit (BD Pharmigen) according to the manufacturer's instruction.

[2] = tested on: β-galactosidase-specific antibody response; assay: β-galactosidase-specific antibody response after intranasal Ad-LacZ with αGalCer; type: in vivo; details: Balb/c mice; 10^6 pfu Ad-LacZ + 0.125 μg αGalCer intranasal, twice at two-week intervals; vs vehicle alone or Ad-LacZ alone
Experimental: as §1

[3] = tested on: OVA-specific antibody responses; assay: OVA-specific antibody responses after intranasal co-administration of OVA and αGalCer, Balb/c mice; type: in vivo
Experimental: To investigate whether αGalCer can be used as a strong adjuvant for a nasal vaccine in Balb/c mice, different amounts of αGalCer (0.15, 0.5, 2.0 μg) and 100 μg of OVA were intranasally administered to Balb/c mice by the same manner as described in Example 1, followed by measurement of OVA-specific IgG, OVA-specific IgG1 and IgG2a in serum and OVA-specific IgA responses in the nasal wash and the lung wash.

[4] = tested on: OT1 cells (OVA specific CD8+ T cells); assay: Intracellular IL-2 and IFN-γ of OT1 cells after OVA257-264 peptide stimulation; type: in vivo, mouse; details: OVA + 2.0 μg αGalCer intranasal vs OVA alone; 5 μM OVA257-264 peptide for 6 hours
Experimental: To confirm whether the activated T-cells were differentiated into fully functional CTL, 2×10^6/ml of cells were further stimulated with 5 μM of OVA257-264 peptide for 6 hours, by the same manner as described in Example 4, and then intracellular IL-2 and IFN-γ levels were measured by using APC-conjugated IL-2 (Clone JES6-5H4, Biolegend Inc., USA) and APC-conjugated IFN-γ mAb (Clone XMG1.2 Biolegend Inc., USA).

[5] = tested on: immune cells from spleen and CLN; assay: Immune cell proliferation, [3H]-thymidine incorporation of spleen and CLN cells cultured with inactivated PR8; type: in vivo; details: Balb/c mice; inactivated PR8 + αGalCer intranasal; cells cultured with inactivated PR8 for 3 days, [3H]-thymidine 18 hrs
Experimental: (§3) To examine the role of αGalCer as an adjuvant of a killed virus, influenza virus A/PR/8/34 (PR8), which was inactivated with formalin, was used as an antigen to examine the anti-virus immune response. Balb/c mice were immunized with indicated amounts (1 μg, 10 μg) of inactivated PR8 alone or together with αGalCer by the intranasal administration twice at two-week intervals. Two weeks after the final immunization, the mice were sacrificed and following experiments were performed.
Single cells separated from the spleen and CLN of the sacrificed mice were cultured with inactivated PR8 for 3 days and [^3H]-thymidine was added and further incubated for 18 hrs. As cells were being proliferated, the level of incorporated [^3H]-thymidine was measured by LSC.

[6] = tested on: IFN-γ and IL-4 production; assay: IFN-γ and IL-4 production of spleen and CLN cells cultured with inactive PR8; type: in vivo; details: Balb/c mice; inactivated PR8 + αGalCer intranasal; cells cultured with inactive PR8 for 5 days
Experimental: as §3
The supernatants were obtained and the levels of IFN-γ and IL-4 therein were measured by the same manner as described in Example 2.

[7] = tested on: OT1 cells (OVA specific CD8+ T cells); assay: CD25 surface expression of adoptively transferred CFSE-labeled OT1 cells in CLN (FACS); type: in vivo, mouse; details: 100 μg OVA + 2.0 μg αGalCer intranasal vs OVA alone; 48 hours later
Experimental: To investigate the effect of αGalCer on the activation of T cells, the surface expression of CD25 in CFSE-labeled OT1 cells (OVA specific CD8+ T cells), which were adoptively transferred into syngenic mice, was measured. OT1 cells were separated from OT1 mouse by using CD8α (Ly-2) magnetic bead (Mitenyl Biotech), which were labeled with 10 μM of CFSE at 37° C. for 15 minutes and then transferred intravenously into a syngenic mouse. One day after the adoptive transfer, the intranasal administration of 100 μg of OVA alone or together with 2.0 μg of αGalCer was performed thereto. 48 hours later, the expression of CD25 in CLN was investigated with FACS.

[8] = tested on: IFN-γ and IL-4 production; assay: IFN-γ and IL-4 levels in spleen and CLN, Balb/c mice; type: in vivo
Experimental: as §2
As described in Example 2, different amounts of αGalCer (0.125, 0.5, 2.0 μg) and OVA were intranasally administered to Balb/c mice (Charles River Laboratories, Oriet Co., Ltd., Korea), followed by measurement of the levels of IFN-γ and IL-4 in spleen and CLN.

[9] = tested on: influenza virus A/PR/8/34; set-up: species or system Balb/c mice; details: mouse, in vivo
[10] = tested on: PR8 HA-specific antibody responses; set-up: species or system Balb/c mice; details: mouse, in vivo
[11] = tested on: inactivated influenza virus A/PR/8/34 (PR8); assay: Humoral immune response after intranasal formalin-inactivated PR8 virus with αGalCer; type: in vivo; details: Balb/c mice
Experimental: as §3
The nasal wash, the lung wash and serum were separated from the sacrificed mice and the antibody productions were observed therein by the same manner as described in Example 1.

[12] = 0.5 μg of αGalCer intranasally coadministered with OVA
[13] = αGalCer (0.15, 0.5, 2.0 μg) + 100 μg OVA intranasal, vs vehicle alone or OVA alone

`CCCCCCCCCCCCCCCCCCCCCCCCCC(=O)N[C@@H](CO[C@H]1O[C@H](CO)[C@H](O)[C@H](O)[C@H]1O)[C@H](O)[C@H](O)CCCCCCCCCCCCCC` [αGalCer, alpha-galactosylceramide] was tested. Which “numbers of IFN-γ-producing CD8+ T cells” value [1] did it give?
Its value is “significant increase”.

And the “secretions of IFN-γ and IL-4 in spleen and CLN” value (IFN-γ and IL-4 secretion)?
The value was “significantly increased”.

And the “β-galactosidase-specific IgG antibody in serum” value [2]?
Its value is “higher levels”.

What about the “β-galactosidase-specific S-IgA antibody in the nasal wash and the lung wash” value [2] of the same compound?
The value was “higher levels”.

What about the “IgG antibody level in serum, comparison of αGalCer doses” value [3, 12] of the same compound?
The value was “highest level of IgG antibody”.

And the “OVA-specific IgA responses in the nasal wash and the lung wash” value [3, 13]?
Its value is “higher OVA-specific IgA responses”.

And the “OVA-specific IgG response in serum” value [3, 13]?
Its value is “higher OVA-specific IgG response”.

And the “OVA-specific IgG1 and IgG2a titers” value ([3]; αGalCer + OVA intranasal, serum)?
The value was “increases”.

What about the “levels of OT1 cells secreting IL-2 and IFN-γ” value [4] of the same compound?
Its value is “higher”.

What about the “proliferation of immune cells from spleen and CLN” value [5] of the same compound?
The value was “significantly increased”.

What about the “levels of Th1 cytokine IFN-γ and Th2 cytokine IL-4 in spleen and CLN” value [6] of the same compound?
The value was “significantly increased”.

What about the “level of OT1 cells expressing CD25 in CLN” value [7] of the same compound?
The value was “higher”.

What about the “IL-4 level in spleen, comparison of αGalCer doses” value [8, 12] of the same compound?
Its value is “highest level of IL-4”.

What about the “production of IFN-γ and IL-4 in spleen and CLN” value ([8]; all groups coimmunized with αGalCer (0.125, 0.5, 2.0 μg) and OVA) of the same compound?
The value was “significant increase”.

And the “level of mucosal IgA in the lung wash and production of IL-4 in CLN, relation to the amount of αGalCer” value ([8]; αGalCer dose series + OVA intranasal)?
Its value is “inverse proportion”.

And the “weight loss recovery after virus infection” value [9]?
The value was “rapid rate of weight loss recovery”.

What about the “PR8 HA-specific IgG antibody in serum” value [10] of the same compound?
The value was “high level”.

What about the “antigen-specific systemic IgG in serum” value ([11]; inactivated PR8 (1 μg, 10 μg) + αGalCer intranasal twice at two-week intervals, vs inactivated PR8 alone) of the same compound?
Its value is “significantly higher; also recorded: increased”.

What about the “mucosal S-IgA in the nasal wash and the lung wash” value ([11]; inactivated PR8 + αGalCer intranasal twice at two-week intervals) of the same compound?
The value was “remarkably increased”.
